# Results published in ChEMBL document CHEMBL1201862, “PubChem BioAssay data set” (2004).
#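 The compound was tested at five concentrations on cells cultured in 96-well plates, with a 48-hour exposure period. The concentration for 50% growth inhibition is given as GI50.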 Activity calls are given as the source filed them. Cut-off read from the data, not from the text of the source: active = GI50 up to about 1.1 µM and inactive = higher.
# Experiments:
# Assay in all cases: growth of human tumour cells (NCI), 48 h
# [1] = system: HCC 2998
# [2] = system: SNB-19
# [3] = system: DU-145
# [4] = system: IGROV-1
# [5] = system: Malme-3M
# [6] = system: U-251
# [7] = system: HCT-116
# [8] = system: A549
# [9] = system: EKVX
# [10] = system: SK-OV-3
# [11] = system: Hs-578T
# [12] = system: LOX IMVI
# [13] = system: T47D
# [14] = system: HT-29
# [15] = system: UACC-62
# [16] = system: ACHN
# [17] = system: MDA-N
# [18] = system: SK-MEL-28
# [19] = system: SK-MEL-2
# [20] = system: MCF7
# [21] = system: PC-3
# [22] = system: MOLT-4
# [23] = system: HOP-62
# [24] = system: KM12
# [25] = system: UACC-257
# [26] = system: NCI/ADR-RES
# [27] = system: NCI-H226
# [28] = system: SF-268
# [29] = system: COLO 205
# [30] = system: MDA-MB-231
# [31] = system: RPMI-8226
# [32] = system: HL-60
# [33] = system: NCI-H522
# [34] = system: M14
# [35] = system: HCT-15
# [36] = system: NCI-H460
# [37] = system: OVCAR-3
# [38] = system: SN12C
# [39] = system: TK-10
# [40] = system: SNB-75
# [41] = system: NCI-H23
# [42] = system: SW-620
# [43] = system: OVCAR-4
# [44] = system: MDA-MB-435
# [45] = system: OVCAR-5
# [46] = system: SF-295
# [47] = system: SF-539
# [48] = system: BT-549
# [49] = system: OVCAR-8
# [50] = system: CAKI-1
# [51] = system: 786-0
# [52] = system: UO-31
# [53] = system: SK-MEL-5
# [54] = system: A498
# [55] = system: RXF 393
compound,measurement,setting,value
Cc1cc(Nc2ccc(S(=O)(=O)O)c3cc(S(=O)(=O)O)cc(S(=O)(=O)O)c23)c2ccccc2n1,GI50,[1],> 100 µM (inactive)
same,GI50,[2],> 100 µM (inactive)
same,GI50,[3],> 100 µM (inactive)
same,GI50,[4],> 100 µM (inactive)
same,GI50,[5],> 100 µM (inactive)
same,GI50,[6],> 100 µM (inactive)
same,GI50,[7],> 100 µM (inactive)
same,GI50,[8],> 100 µM (inactive)
same,GI50,[9],> 100 µM (inactive)
same,GI50,[10],> 100 µM (inactive)
same,GI50,[11],> 100 µM (inactive)
same,GI50,[12],> 100 µM (inactive)
same,GI50,[13],> 100 µM (inactive)
same,GI50,[14],> 100 µM (inactive)
same,GI50,[15],> 100 µM (inactive)
same,GI50,[16],> 100 µM (inactive)
same,GI50,[17],> 100 µM (inactive)
same,GI50,[18],> 100 µM (inactive)
same,GI50,[19],> 100 µM (inactive)
same,GI50,[20],> 100 µM (inactive)
same,GI50,[21],> 100 µM (inactive)
same,GI50,[22],> 100 µM (inactive)
same,GI50,[23],> 100 µM (inactive)
same,GI50,[24],> 100 µM (inactive)
same,GI50,[25],> 100 µM (inactive)
same,GI50,[26],> 100 µM (inactive)
same,GI50,[27],> 100 µM (inactive)
same,GI50,[28],> 100 µM (inactive)
same,GI50,[29],> 100 µM (inactive)
same,GI50,[30],> 100 µM (inactive)
same,GI50,[31],> 100 µM (inactive)
same,GI50,[32],> 100 µM (inactive)
same,GI50,[33],> 100 µM (inactive)
same,GI50,[34],> 100 µM (inactive)
same,GI50,[35],> 100 µM
same,GI50,[36],> 100 µM (inactive)
same,GI50,[37],> 100 µM (inactive)
same,GI50,[38],> 100 µM (inactive)
same,GI50,[39],> 100 µM (inactive)
same,GI50,[40],> 100 µM (inactive)
same,GI50,[41],> 100 µM (inactive)
same,GI50,[42],> 100 µM (inactive)
same,GI50,[43],> 100 µM (inactive)
same,GI50,[44],> 100 µM (inactive)
same,GI50,[45],> 100 µM (inactive)
same,GI50,[46],> 100 µM (inactive)
same,GI50,[47],> 100 µM (inactive)
same,GI50,[48],> 100 µM (inactive)
same,GI50,[49],> 100 µM (inactive)
same,GI50,[50],> 100 µM (inactive)
same,GI50,[51],> 100 µM (inactive)
same,GI50,[52],> 100 µM (inactive)
same,GI50,[53],> 100 µM (inactive)
same,GI50,[54],> 100 µM (inactive)
same,GI50,[55],> 100 µM (inactive)
